The structures appear in SMILES notation.

For this experiment, the target named is T1, chymotrypsin-like activity of 20S proteasome (Bos taurus, UniProt Q2TBX6+Q32KL2).
T1 construct: was purified to homogeneity from bovine brain according to published methods; from tissue; host or cells: bovine brain
The experiment is described as follows: 20S proteasome chymotryptic activity inhibition assay (Suc-Leu-Leu-Val-Tyr-AMC cleavage). As to conditions: 2 μg 20S proteasome from bovine brain, 50 μM fluorogenic substrate, 15 minutes at 37° C., pH7.5. Format: biochemical. The protocol:
Compounds of this invention prepared according to the method of Example 1 were tested as follows. The 20S catalytic subunit of the proteasome (also known as the multicatalytic proteinase complex) was purified to homogeneity from bovine brain according to published methods (Wilk S. and Orlowski,M 1983, 40 842 J.Neurochem). The chymotryptic activity of the complex is measured by the increase in fluorescence following cleavage of the substrate peptide succinyl-leucine-leucine-valine-tyrosine-7-amino-4methyl coumarin. The standard in vitro assay consists of 2 μg 20S proteasome, 0.1-100 μg/ml proteasome inhibitor in 200 μl 50 mM HEPES, containing 0.1% sodium dodecyl sulphate, pH7.5. The proteolytic reaction is initiated by the addition of 50 μM flourogenic peptide substrate and allowed to progress for 15 minutes at 37° C. The reaction is terminated by the addition of 100 μL of 100 mM acetate buffer, pH4.0. The rate of proteolysis is directly proportional to the amount of liberated aminomethylcoumarin which is measured by fluorescent spectroscopy (EX 370 nm, EM 430 nm).

The IC50 is the concentration needed to halve the response being measured. High values mean a need for much substance, low ones inhibition by little substance. For the compound `CC(C)C[C@@H](NC(=O)C(=O)Cc1c[nH]c2ccccc12)C(=O)N[C@H](CC(C)C)C(=O)NCc1ccccc1` [Compound 3], the IC50 is over 19.3 µM. Same read-out and setting: the figure for `CC(C)CC(NC(=O)C(=O)Cc1c[nH]c2ccccc12)C(=O)NC(CC(C)C)C(=O)NCC(=O)O` (centres unmarked) [Compound 5] is over 20.6 µM.

As to `CC(C)CC(NC(=O)C(=O)Cc1ccccc1)C(=O)NC(CC(C)C)C(=O)NCC(=O)O` (centres unmarked) [Compound 6], the “IC50 for the inhibition of the chymotrypsin-like activity of 20S proteasome” value (shortened to “IC50 for the inhibition”) is over 10 µg/mL. The same measure, in the same setting: the figure for `CC(C)CC(NC(=O)C(=O)Cc1ccccc1)C(=O)NC(CC(C)C)C(=O)NCC(=O)NCc1ccccc1` (centres unmarked) [Compound 7] is over 10 µg/mL; for `CC(C)CC(NC(=O)C(=O)c1c[nH]c2ccccc12)C(=O)NC(CC(C)C)C(=O)NCC(=O)NCc1ccccc1` (centres unmarked) [Compound 8] it is over 10 µg/mL.

As to `CC(C)CC(NC(=O)C(=O)Cc1c[nH]c2ccccc12)C(=O)NC(CC(C)C)C(=O)NCC(=O)NCc1ccccc1` (centres unmarked) [Compound 9], the “IC50 for the inhibition” value was over 10 µg/mL.

In the case of `CC(C)CC(NC(=O)C(CC(C)C)NC(=O)C(=O)c1c[nH]c2ccccc12)C(=O)O` (centres unmarked) [Compound 10], the “IC50 for the inhibition” value is over 10 µg/mL. Same read-out and setting: the figure for `CC(C)CC(NC(=O)C(CC(C)C)NC(=O)C(=O)c1ccccc1)C(=O)O` (centres unmarked) [Compound 11] is over 10 µg/mL.

Turning to `CC(C)CC(NC(=O)C(=O)c1ccccc1)C(=O)NC(CC(C)C)C(=O)NCC(=O)O` (centres unmarked) [Compound 12], the “IC50 for the inhibition” value was over 10 µg/mL. Same read-out and setting: next, `CC(C)CC(NC(=O)C(=O)Cc1ccccc1)C(=O)NC(CC(C)C)C(=O)NC(Cc1ccccc1)C(=O)O` (centres unmarked) [Compound 13]: over 10 µg/mL; `CC(C)CC(NC(=O)C(=O)c1c[nH]c2ccccc12)C(=O)NC(CC(C)C)C(=O)NC(Cc1ccccc1)C(=O)O` (centres unmarked) [Compound 14]: over 10 µg/mL. `CC(C)C[C@H](NC(=O)C(=O)Cc1c[nH]c2ccccc12)C(=O)N[C@H](CC(C)C)C(=O)N[C@H](C(=O)O)C(C)C` [Compound 17]: the IC50 is over 18.9 µM. Still for that read-out and setting: the figure for `CC(C)C[C@H](NC(=O)[C@@H](CC(C)C)NC(=O)[C@H](CC(C)C)NC(=O)C(=O)Cc1c[nH]c2ccccc12)C(=O)O` [Compound 18] is over 18.4 µM. Take `CCC(C)C(NC(=O)C(CC(C)C)NC(=O)C(CC(C)C)NC(=O)C(=O)Cc1c[nH]c2ccccc12)C(=O)O` (centres unmarked) [Compound 19]: the “IC50 for the inhibition” value was over 10 µg/mL.

Regarding `CC(C)CC(NC(=O)C(=O)Cc1c[nH]c2ccccc12)C(=O)NC(CC(C)C)C(=O)NC(C)C(=O)O` (centres unmarked) [Compound 20], the “IC50 for the inhibition” value is over 10 µg/mL. As for `CC(C)CC(NC(=O)C(=O)Cc1c[nH]c2ccccc12)C(=O)NC(CC(C)C)C(=O)NC(Cc1ccc(O)cc1)C(=O)O` (centres unmarked) [Compound 21], the “IC50 for the inhibition” value was over 10 µg/mL. The same measure, in the same setting: next, `CC(C)CC(NC(=O)C(CC(C)C)NC(=O)C(CC(C)C)NC(=O)C(=O)Cc1c[nH]c2ccccc12)C(=O)O` (centres unmarked) [Compound 22]: over 10 µg/mL. `CC(C)C[C@H](NC(=O)[C@@H](CC(C)C)NC(=O)[C@@H](CC(C)C)NC(=O)C(=O)Cc1c[nH]c2ccccc12)C(=O)O` [Compound 23] had an IC50 of over 18.4 µM.

On to `CCC(C)C(NC(=O)C(CC(C)C)NC(=O)C(CC(C)C)NC(=O)C(=O)Cc1c[nH]c2ccccc12)C(=O)O` (centres unmarked) [Compound 24], for which the “IC50 for the inhibition” value was over 10 µg/mL.

Take `CC(C)CC(NC(=O)C(=O)Cc1c[nH]c2ccccc12)C(=O)NC(CC(C)C)C(=O)NC(C)C(=O)O` (centres unmarked) [Compound 25]: the “IC50 for the inhibition” value was over 10 µg/mL. The same measure, in the same setting: the figure for `CC(C)CC(NC(=O)C(=O)Cc1c[nH]c2ccccc12)C(=O)NC(CC(C)C)C(=O)NC(Cc1ccc(O)cc1)C(=O)O` (centres unmarked) [Compound 26] is over 10 µg/mL; for `CC(C)CC(NC(=O)C(=O)Cc1c[nH]c2ccccc12)C(=O)NC(CC(C)C)C(=O)NC(C(=O)O)C(C)C` (centres unmarked) [Compound 27] it is over 10 µg/mL. As for `CC(C)CC(NC(=O)C(CC(C)C)NC(=O)C(CC(C)C)NC(=O)C(=O)Cc1c[nH]c2ccccc12)C(=O)O` (centres unmarked) [Compound 28], the “IC50 for the inhibition” value is over 10 µg/mL.

Take `CCC(C)C(NC(=O)C(CC(C)C)NC(=O)C(CC(C)C)NC(=O)C(=O)Cc1c[nH]c2ccccc12)C(=O)O` (centres unmarked) [Compound 29]: the “IC50 for the inhibition” value is over 10 µg/mL. Compound `CC(C)CC(NC(=O)C(=O)Cc1c[nH]c2ccccc12)C(=O)NC(CC(C)C)C(=O)NC(C)C(=O)O` (centres unmarked) [Compound 30] showed an IC50 of over 20 µM.

Regarding `CC(C)CC(NC(=O)C(=O)Cc1c[nH]c2ccccc12)C(=O)NC(CC(C)C)C(=O)NC(Cc1ccc(O)cc1)C(=O)O` (centres unmarked) [Compound 31], the “IC50 for the inhibition” value was over 10 µg/mL. The same measure, in the same setting: next, `CC(C)CC(NC(=O)C(=O)Cc1c[nH]c2ccccc12)C(=O)NC(CC(C)C)C(=O)NC(C(=O)O)C(C)C` (centres unmarked) [Compound 32]: over 10 µg/mL; `CC(C)CC(NC(=O)C(CC(C)C)NC(=O)C(CC(C)C)NC(=O)C(=O)Cc1c[nH]c2ccccc12)C(=O)O` (centres unmarked) [Compound 33]: over 10 µg/mL; `CCC(C)C(NC(=O)C(CC(C)C)NC(=O)C(CC(C)C)NC(=O)C(=O)Cc1c[nH]c2ccccc12)C(=O)O` (centres unmarked) [Compound 34]: over 10 µg/mL.

As for `CC(C)CC(NC(=O)C(=O)Cc1c[nH]c2ccccc12)C(=O)NC(CC(C)C)C(=O)NC(C)C(=O)O` (centres unmarked) [Compound 35], the “IC50 for the inhibition” value was over 10 µg/mL. Still for that read-out and setting: the figure for `CC(C)CC(NC(=O)C(=O)Cc1c[nH]c2ccccc12)C(=O)NC(CC(C)C)C(=O)NC(Cc1ccc(O)cc1)C(=O)O` (centres unmarked) [Compound 36] is over 10 µg/mL; for `CC(C)CC(NC(=O)CNC(=O)C(=O)Cc1c[nH]c2ccccc12)C(=O)NC(C(=O)O)C(C)C` (centres unmarked) [Compound 37] it is over 10 µg/mL. On to `CC(C)CC(NC(=O)CCNC(=O)C(=O)Cc1c[nH]c2ccccc12)C(=O)NC(C(=O)O)C(C)C` (centres unmarked) [Compound 38], for which the “IC50 for the inhibition” value is over 10 µg/mL. Same read-out and setting: next, `CCCCC(NC(=O)C(=O)Cc1c[nH]c2ccccc12)C(=O)NC(CC(C)C)C(=O)NC(C(=O)O)C(C)C` (centres unmarked) [Compound 39]: over 10 µg/mL. In turn, `CC(C)C[C@@H](NC(=O)[C@H](Cc1ccccc1)NC(=O)C(=O)Cc1c[nH]c2ccccc12)C(=O)N[C@H](C(=O)O)C(C)C` [Compound 40] yielded an IC50 of over 17.8 µM.

Consider `CC(C)CC(NC(=O)C(NC(=O)C(=O)Cc1c[nH]c2ccccc12)C(C)O)C(=O)NC(C(=O)O)C(C)C` (centres unmarked) [Compound 41], for which the “IC50 for the inhibition” value was over 10 µg/mL. Still for that read-out and setting: the figure for `CC(C)CC(NC(=O)C(C)NC(=O)C(=O)Cc1c[nH]c2ccccc12)C(=O)NC(C(=O)O)C(C)C` (centres unmarked) [Compound 42] is over 10 µg/mL; for `CC(C)CC(NC(=O)C(CC(=O)O)NC(=O)C(=O)Cc1c[nH]c2ccccc12)C(=O)NC(C(=O)O)C(C)C` (centres unmarked) [Compound 43] it is over 10 µg/mL. `CC(C)CC(NC(=O)C(NC(=O)C(=O)Cc1c[nH]c2ccccc12)C(C)C)C(=O)NC(C(=O)O)C(C)C` (centres unmarked) [Compound 44]: the “IC50 for the inhibition” value was over 10 µg/mL. Consider `CCCC(NC(=O)C(=O)Cc1c[nH]c2ccccc12)C(=O)NC(CC(C)C)C(=O)NC(C(=O)O)C(C)C` (centres unmarked) [Compound 45], for which the “IC50 for the inhibition” value was over 10 µg/mL. On the same count and under the same terms, next, `CC(C)CC(NC(=O)C(Cc1ccc(O)cc1)NC(=O)C(=O)Cc1c[nH]c2ccccc12)C(=O)NC(C(=O)O)C(C)C` (centres unmarked) [Compound 46]: over 10 µg/mL; `CCC(C)C(NC(=O)C(=O)Cc1c[nH]c2ccccc12)C(=O)NC(CC(C)C)C(=O)NC(C(=O)O)C(C)C` (centres unmarked) [Compound 47]: over 10 µg/mL.

Take `CC(C)CC(NC(=O)C(CC1CCCCC1)NC(=O)C(=O)Cc1c[nH]c2ccccc12)C(=O)NC(C(=O)O)C(C)C` (centres unmarked) [Compound 48]: the “IC50 for the inhibition” value is over 10 µg/mL. On the same count and under the same terms, the figure for `CC(C)CC(NC(=O)C(Cc1cccnc1)NC(=O)C(=O)Cc1c[nH]c2ccccc12)C(=O)NC(C(=O)O)C(C)C` (centres unmarked) [Compound 49] is over 10 µg/mL; for `CC(C)CC(NC(=O)C(Cc1ccc2ccccc2c1)NC(=O)C(=O)Cc1c[nH]c2ccccc12)C(=O)NC(C(=O)O)C(C)C` (centres unmarked) [Compound 50] it is over 10 µg/mL.

With `CC(C)C[C@@H](NC(=O)[C@H](Cc1ccc(-c2ccccc2)cc1)NC(=O)C(=O)Cc1c[nH]c2ccccc12)C(=O)N[C@H](C(=O)O)C(C)C` [Compound 51], the IC50 was over 15.7 µM.

On to `CC(C)CC(NC(=O)CNC(=O)C(=O)Cc1c[nH]c2ccccc12)C(=O)NCC(=O)O` (centres unmarked) [Compound 52], for which the “IC50 for the inhibition” value is over 10 µg/mL.

The values are drawn from US6781000B1, “Alpha-ketoamide inhibitors of 20S proteasome” (CV Theurapeutics, Inc., priority 1998, dated 2004).
